{"source": "patent US20050143453A1", "about": "“Selective preventing and therapeutic agents for progressive lesion after organic damage” (priority 2000, published 2005)", "key": {"[1]": {"test_system": "induction of effector macrophage by contact of human PBMC with lipopolysaccharide", "experiment": "SPFC production by LPS stimulation (Test Example 1)", "type": "cell-based", "procedure": "A suppressive effect of the test compound to effector macrophage induction was investigated in vitro by an induction and production system of spontaneous plaque-forming cell (SPEC) mentioned in M. Ishibashi, S. Jiang, Y. Kokado, S. Takahara, T. Sonoda: Immunopharmacologic effects of immunosuppressive agents explored by a new effector generation assay. Transplant Proc., 21: 1854-1858, 1989.\nHeparin-added peripheral blood (40 ml) was collected from a healthy person and the same amount of EDTA-added physiological saline was added. PBMC were obtained by a specific gravity centrifugal method using Ficoll-Hypaque (manufactured by Pharmacia Fine Chemicals). Self-plasma was added thereto and allowed to stand at 37° C. for 10 minutes and platelets were removed by a low-speed centrifugal separation. RPMI 1640 liquid containing 15 μg/ml of gentamicin and 2 mM L-glutamine was used for washing the PBMC. Concentration of the PBMC was adjusted to 2×10^6 cells/ml using the same liquid.\nEach 200 μl of a solution containing 2×10^6 PBMC/ml prepared in the step 1 were added to each well of a micro test plate, lipopolysaccharide (hereinafter, abbreviated as LPS) was diluted with the RPMI 1640 liquid to make the final concentration 80 μg/ml and the said LPS solution was added to each well of the 200 μl-micro test plate. Further, each 50 μl of human serum of type AB were added so as to make the concentration 10% by weight. Two such micro test plates were prepared.\nAfter that, to the above two micro test plates was added a solution where the test compound was diluted with 1% by weight of DMSO so as to make the concentration of the test compound 1 μM. Similarly were prepared each two micro test plates where the final concentrations of the test compound were 0.1 μM, 0.01 μM and 0.001 μM.\nThe culture liquid prepared as such was incubated for 6 days at 37° C. in 5% CO2.\nThe effector macrophage induced after the incubation was all recovered using a rubber-policeman (spatula made of rubber). A Hanks solution containing 5 μg/ml of gentamicin was used for washing and, using the said solution, there was prepared a solution where the concentration of the induced effector macrophage was 2×10^6 per ml.\nWith regard to autologous erythrocytes, those which were preserved at 4° C. in a phosphate physiological saline (hereinafter, abbreviated as PBS) to which 0.1% by weight of AB serum and autologous erythrocytes obtained from PBMC separation were used were used. The preserved autologous erythrocytes were washed for three times with a Hanks solution to which no serum was added and made into a solution of 4% by weight concentration using the said Hanks solution. Poly-L-lysine was added to a Terasaki plate and washed with PBS every 20 minutes at 37° C., the above-mentioned autologous erythrocyte solution was added thereto immediately, the mixture was allowed to stand at 37° C. for 30 minutes and the erythrocytes which were not adhered to the plate were removed to prepare a Terasaki plate to which self-erythrocytes in a monolayer were adhered.\nA Hanks solution (4 μl) was added to the said Terasaki plate, 4 μl of a solution containing the induced effector macrophage obtained in the step 3 were added thereto and the mixture was allowed to stand at 37° C. for 2 hours. After completion of the reaction, it was fixed by formalin. Numbers of the produced SPFC which were adhered or phagocytized were measured.\nA mean SPFC production number was calculated from the measured values of SPFC production when the concentration of the test compound was the same. SPFC production number per 1×10^6 of the induced effector macrophage was calculated and, from the recovered induced effector macrophage numbers, total SPFC production amount (S2) was calculated.\nAs a control, no test compound was added and the same operation as above was carried out to calculate the total SPFC production amount (S1). […]"}, "[2]": {"test_system": "kidney of chronic puromycin nephrosis rat", "experiment": "Puromycin chronic nephrosis model in rat (CPN, Test Example 4)", "type": "in vivo", "procedure": "Evaluation Using Puromycin Chronic Nephrosis Model in Rat\nMale SD rat of 8 weeks age of about 250 g was used and […] of puromycin were intravenously administered once according to a method of Diamond, et al. (J. R. Diamond, I. Pesek, S. Ruggeri, M. J. Karnovsky: Essential fatty acid deficiency during acute puromycin nephrosis ameliorates late renal injury. Am. J. Physiol, 257: F798˜F807, 1989). There was induced a chronic puromycin nephrosis rat where albuminuria increased from about tenth to twelfth week. After eighth week from administration of puromycin, each of compound (9-1) and compound (6-1) was subcutaneously injected at the dose of 30 mg/kg/day everyday until the 22nd week.\nAs a functional evaluation of kidney, albumin in urine was measured every week using a kit for the measurement of albumin. On the 22nd week, the rat was killed and anatomized to observe functional and morphological changes of kidney."}, "[3]": {"test_system": "lesion of tubulointerstitial tissue / glomerulus", "experiment": "Suppression of renal lesion in vivo by active metabolites (model not stated)"}, "[4]": {"details": "30 mg/kg/day subcutaneously from 8th to 22nd week after puromycin"}}, "note": "Like-named read-outs stand apart in the source and are kept apart here."}
{"smiles": "CCOC(=O)C(=O)CCC(=O)O", "note": "[(9-1), ethyl 2-ketoglutarate]", "values": [{"measurement": "IC50", "setting": "[1]; Table 5, read-out: Inhibiting Concentration for SPEC Production by LPS Stimulation (μM: IC50)", "result": "> 1", "unit": "µM"}, {"measurement": "IC50", "setting": "[1]; human PBMC with LPS 80 μg/ml, incubated 6 days, Table 1, read-out: SPFC Production Inhibiting Concentration by LPS Stimulation (μM: IC50)", "result": "> 1", "unit": "µM"}, {"measurement": "suppression of lesion of tubulointerstitial tissues", "setting": "[2]; 30 mg/kg/day subcutaneously", "result": "well suppressed"}, {"measurement": "Rate of Cases where Glomerular Lesion was Suppressed", "setting": "[2]; [4]", "result": "50% (3/6)"}, {"measurement": "Rate of Cases where Lesion of Tubulointerstitial Tissue was Suppressed", "setting": "[2]; [4]", "result": "83% (5/6)"}, {"measurement": "suppression of lesion in tubulointerstitial tissue in vivo", "setting": "[3]", "result": "shows an activity for suppressing"}]}
